# “And” between values parts separate entries of the source, which are not always exact repeats. Equal entries are not always repeated.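 Step 1: Grow cells in 96-well plates. Step 2: Expose to compound for 48 hours at 5 concentrations. Step 3: Interpolate endpoints linearly; if unreached, use highest concentration. GI50 = concentration required for 50% inhibition of growth. Definition used: TGI = concentration required for complete inhibition of growth.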
# Experiments:
# Test in all cases: NCI tumour cell line growth inhibition, 48 h
# EKVX NSCLC = test system: EKVX NSCLC
# SK-MEL-28 melanoma = test system: SK-MEL-28 melanoma
# SW-620 colon = test system: SW-620 colon
# NCI-H460 lung = test system: NCI-H460 lung
# HCT-116 colon = test system: HCT-116 colon
# SF-295 CNS = test system: SF-295 CNS
# SK-MEL-5 melanoma = test system: SK-MEL-5 melanoma
# U251 CNS = test system: U251 CNS
# NCI-H226 lung = test system: NCI-H226 lung
# SN12C renal = test system: SN12C renal
Structure (SMILES),GI50 (EKVX NSCLC),TGI (EKVX NSCLC),GI50 (SK-MEL-28 melanoma),TGI (SK-MEL-28 melanoma),GI50 (SW-620 colon) [µM],TGI (SW-620 colon),GI50 (NCI-H460 lung),TGI (NCI-H460 lung),GI50 (HCT-116 colon) [µM],TGI (HCT-116 colon),GI50 (SF-295 CNS),TGI (SF-295 CNS),GI50 (SK-MEL-5 melanoma) [µM],TGI (SK-MEL-5 melanoma),GI50 (U251 CNS),TGI (U251 CNS),GI50 (NCI-H226 lung),TGI (NCI-H226 lung),GI50 (SN12C renal) [µM],TGI (SN12C renal)
COCCOCCOCc1n(Cc2ccc3ccccc3n2)c2ccccc2[n+]1Cc1ccc2ccccc2n1,2.55 µM,24.4 µM,0.759 µM,14.5 µM,2.03,17.2 µM,1.87 µM,12.4 µM,1.26,11.7 µM,1.69 µM,8.19 µM,0.388,1.48 µM,0.354 µM,12.9 µM,2.44 µM,18.4 µM,0.306,11.1 µM
CCN1C(=NCCO)NS(=O)(=O)c2ccccc21,,> 100 µM,,> 100 µM,,> 100 µM,,> 100 µM,,> 100 µM,,> 100 µM,,> 100 µM,,> 100 µM,,> 100 µM,,> 100 µM
CCOC(=O)Nc1cc2ccccc2c(N=Nc2ccccc2)c1O,,> 100 µM,,> 100 µM,,> 100 µM,,> 100 µM,,> 100 µM,,> 100 µM,,> 100 µM,,> 100 µM,,> 100 µM,,> 100 µM
CC(=O)OC1=CC2(OC(C)=O)CC(C)(C)C1C1C(=O)C=CC(=O)C12 (configuration not stated),,> 100 µM,,> 100 µM,,> 100 µM,,> 100 µM,,> 89.4 µM,,> 100 µM,,> 100 µM,,> 100 µM,,> 100 µM,,> 80.5 µM
NC1(Cc2ccc(Cl)cc2)CCN(c2ncnc3[nH]ccc23)CC1,2.69 µM,18.5 µM,6.63 µM,19.8 µM,4.59,20.4 µM,2.31 µM,13.3 µM,5.18,38.7 µM,1.48 µM,13.5 µM,14.9,28.2 µM,3.73 µM,17.5 µM,6.96 µM,25.1 µM,4.4,28.8 µM
COc1ccc2c(c1)-c1nn(CCCN(C)C)c3ccc([N+](=O)[O-])c(c13)N2,0.393 µM and 1 µM,4.22 µM and 9.84 µM,0.77 µM and 1.75 µM,7.78 µM and 12.6 µM,0.0633,4.69 µM and 3.65 µM,0.103 µM and 0.27 µM,1.21 µM and 3.06 µM,,4.02 µM and 4.42 µM,0.175 µM and 0.389 µM,3.76 µM and 3.07 µM,,2 µM and 2.92 µM,0.178 µM and 0.502 µM,4.94 µM and 14.7 µM,0.25 µM and 0.664 µM,3.75 µM and 6.86 µM,,3.68 µM and 10.1 µM
N#CC1=C(O)NC(O)=C(C#N)C1c1ccc(C2C(C#N)=C(O)NC(O)=C2C#N)cc1,,> 100 µM,,> 100 µM,,> 100 µM,,> 100 µM,,> 100 µM,,> 100 µM,,> 100 µM,,> 100 µM,,> 100 µM,,> 100 µM
O=C1N(Cc2ccccc2Cl)c2ccccc2C12NN=C(c1cccc(Cl)c1)S2 (configuration not stated),1.69 µM,3.08 µM,1.86 µM,3.57 µM,2.02,4.33 µM,1.42 µM,3.32 µM,1.62,2.98 µM,1.71 µM,3.17 µM,1.71,3.11 µM,1.77 µM,3.15 µM,1.49 µM,2.86 µM,1.91,3.92 µM
Cc1ccc(C2NC(=O)c3ccccc3N2)c(C)c1 (configuration not stated),,> 100 µM,,> 100 µM,,> 100 µM,,> 100 µM,,> 100 µM,,> 35 µM,,> 39.5 µM,,> 39.5 µM,,47.8 µM,,> 86.5 µM
Cc1ccc(NC(=O)CCc2n[nH]c(=S)o2)cc1,,> 100 µM,,> 100 µM,,> 100 µM,,> 100 µM,,> 100 µM,,> 100 µM,,> 100 µM,,> 100 µM,,> 100 µM,,> 100 µM
CCCCCCNCc1cc(C(C)(C)C)cc(CNCCCCCC)c1O,1.55 µM,2.96 µM,1.83 µM,3.27 µM,1.66,3.1 µM,1.81 µM,3.34 µM,1.7,3.07 µM,1.64 µM,3.16 µM,1.65,3.01 µM,1.57 µM,2.91 µM,1.69 µM,3.36 µM,1.7,3.15 µM
CC(C)(C)OC(=O)NCc1cccc(N=C=S)c1,23.4 µM,61 µM,16.9 µM,37.7 µM,18.9,47.7 µM,20.5 µM,46.1 µM,18,36 µM,17.5 µM,40.9 µM,14.9,28.4 µM,23 µM,53.4 µM,19.1 µM,51.4 µM,22.1,60.3 µM
CC1SC2(CCCCC2)N(NC(=O)c2[nH]c3ccc(Br)cc3c2-c2ccccc2)C1=O (configuration not stated),> 100 µM,> 100 µM,56.2 µM,> 100 µM,> 100,> 100 µM,48.2 µM,> 100 µM,10.2,> 100 µM,10.7 µM,46.7 µM,> 100,> 100 µM,41.3 µM,> 100 µM,40.7 µM,> 100 µM,4.66,30.6 µM
CC1(C)O[C@@H]2C[C@H]3[C@@H]4C[C@H](F)C5=CC(=O)C=C[C@]5(C)[C@@]4(F)[C@@H](O)C[C@]3(C)[C@]2(C(=O)CO)O1,,> 100 µM,,> 100 µM,,> 100 µM,,> 100 µM,,> 100 µM,,> 100 µM,,> 100 µM,,> 100 µM,,> 100 µM,,> 100 µM
NC(=O)c1sc(-n2cnc3cc(C(F)(F)F)ccc32)cc1OCc1ccccc1Br,> 25 µM,> 25 µM,> 23.4 µM,> 25 µM,> 17.9,> 25 µM,> 19.6 µM,> 25 µM,> 16,> 25 µM,> 25 µM,> 25 µM,> 16.5,> 25 µM,> 15.8 µM,> 25 µM,> 17.2 µM,> 25 µM,24.6,> 25 µM
